The compounds below were run on GMPPNP-loaded H-Ras or GTP-loaded K-Ras (assay: Fluorescence polarization competition assay with TAMRA-labeled probe R4007). Settings: 120 nM Ras, 30 nM probe R4007, 60 minutes at room temperature; read-out: Probe displacement (nM IC50).
Format: binding, human
Experimental: R4000 was evaluated for competition with a TAMRA labeled probe (R4007) based on peptide R4000. The assay was performed in 384-well black, non-binding plates (Greiner Bio-One, Monroe, N.C.). GMPPNP-loaded H-Ras or GTP-loaded K-Ras, diluted in FP assay buffer (20 mM Tris-HCl, pH 7.5, 50 mM NaCl, 5 mM MgCl2, 1 mM EDTA, 0.002% Triton-X-100) for a final concentration of 120 nM was incubated with 30 nM R4007 for 20 minutes at room temperature. R4000 was serially diluted, added to the assay and incubated for 60 minutes at room temperature. Fluorescence polarization was detected with a SpectraMax Paradigm plate reader (Molecular Devices, Sunnyvale, Calif.) using the Rhodamine FP detection cartridge (535 nm/595 nm). Data was analyzed using GraphPad Prism and Ki determined using One Site Ki Curve fitting model.
Peptides were evaluated for competition with R4007, a probe consisting of TAMRA-labeled R4000, using a fluorescence polarization (FP) competition assay. The assay was performed in 384-well black, non-binding plates (Greiner Bio-One, Monroe, N.C.). GMPPNP-loaded H-Ras or GTP- loaded K-Ras, diluted in FP assay buffer (20 mM Tris-HCl, pH 7.5, 50 mM NaCl, 5 mM MgCl2, 1 mM EDTA, 0.002% Triton-X-100) for a final concentration of 120 nM was incubated with 30 nM probe for 20 minutes at room temperature. Peptides were serially diluted, added to the assay and incubated for 60 minutes at room temperature. Fluorescence was detected with a SpectraMax Paradigm plate reader (Molecular Devices, Sunnyvale, Calif.) using the Rhodamine FP detection cartridge (535 nm/595 nm). Data was analyzed and Ki determined using a One Site Ki Curve fitting model. Percent inhibition for each data point was calculated relative to the maximal binding in test compound-free control wells (showing no probe displacement) and Ras-free control wells (showing no probe binding) and the half-maximal inhibitory concentration (IC50), based on probe displacement, was determined.

Row | Compound | IC50 [nM]
1 | CCC[C@H](NC(C)=O)C(=O)N[C@H]1CSCc2cccc(c2)CSC[C@@H](C(=O)N[C@H](CO)C(=O)N[C@H](C)C(=O)N[C@@H](CCCCN)C(=O)N[C@@H](CSSC(C)(C)C)C(=O)N[C@H](C(=O)N[C@H](C(=O)N[C@@H](CCSC)C(=O)O)[C@@H](C)CC)C(C)C)NC(=O)CN(C)C(=O)[C@H](Cc2ccc(F)cc2)N(C)C(=O)[C@H](Cc2ccc(O)cc2)NC(=O)[C@H](Cc2c[nH]c3ncccc23)NC(=O)[C@H](c2ccccc2)NC(=O)[C@H](C)N(C)C(=O)[C@H](Cc2c[nH]cn2)NC(=O)[C@H](CCCCN)NC(=O)[C@H](C(C)(C)C)NC(=O)[C@H](Cc2ccc(O)cc2)NC1=O (relative stereo) [Compound R4111, ACE-NVA-CYS*-TYR-TBG-LYS-HIS-NMA-PHG-7AW-TYR-MFF-SAR-CYS*-DSER-DALA-LYS-TDSPA-VAL-ILE-MET] | 20.8
2 | CCC[C@H](NC(C)=O)C(=O)N[C@H]1CSCc2cccc(c2)CSC[C@@H](C(N)=O)NC(=O)CN(C)C(=O)[C@H](Cc2ccc(F)cc2)N(C)C(=O)[C@H](Cc2ccc(O)cc2)NC(=O)[C@H](Cc2c[nH]c3ccccc23)NC(=O)[C@H](c2ccccc2)NC(=O)[C@H](C)N(C)C(=O)[C@H](Cc2c[nH]cn2)NC(=O)[C@H](CCCCN)NC(=O)[C@H](C(C)(C)C)NC(=O)[C@H](Cc2ccc(O)cc2)NC1=O (relative stereo) [Compound R4115, ACE-NVA-CYS*-TYR-TBG-LYS-HIS-NMA-PHG-TRP-TYR-MFF-SAR-CYS*-NH2] | 34.1
3 | CCC[C@H](NC(C)=O)C(=O)N[C@H]1CSCc2cccc(c2)CSC[C@@H](C(=O)NCC(=O)N[C@@H](CS)C(=O)N[C@@H](CCSC)C(=O)N[C@@H](CO)C(=O)N[C@@H](CS)C(=O)N[C@@H](CCCCN)C(=O)N[C@@H](CS)C(=O)N[C@H](C(=O)N[C@@H](CC(C)C)C(=O)N[C@@H](CO)C(N)=O)C(C)C)NC(=O)CN(C)C(=O)[C@H](Cc2ccc(F)cc2)N(C)C(=O)[C@H](Cc2ccc(O)cc2)NC(=O)[C@H](Cc2c[nH]c3ncccc23)NC(=O)[C@H](c2ccccc2)NC(=O)[C@H](C)N(C)C(=O)[C@H](Cc2c[nH]cn2)NC(=O)[C@H](CCCCN)NC(=O)[C@H](C(C)(C)C)NC(=O)[C@H](Cc2ccc(O)cc2)NC1=O (relative stereo) [Compound R4116, ACE-NVA-CYS*-TYR-TBG-LYS-HIS-NMA-PHG-7AW-TYR-MFF-SAR-CYS*-GLY-CYS-MET-SER-CYS-LYS-CYS-VAL-LEU-SER-NH2] | 35.7
4 | CCC[C@H](NC(C)=O)C(=O)N[C@H]1CSCc2cccc(c2)CSC[C@@H](C(N)=O)NC(=O)[C@H](C)N(C)C(=O)[C@H](Cc2ccc(F)cc2)N(C)C(=O)[C@H](Cc2ccc(O)cc2)NC(=O)[C@H](Cc2c[nH]c3ncccc23)NC(=O)[C@@H](c2ccccc2)NC(=O)[C@H](C)N(C)C(=O)[C@H](Cc2c[nH]cn2)NC(=O)[C@H](CCCCN)NC(=O)[C@H](C(C)(C)C)NC(=O)[C@H](Cc2ccc(O)cc2)NC1=O (relative stereo) [Compound R4121, ACE-NVA-CYS*-TYR-TBG-LYS-HIS-NMA-DPHG-7AW-TYR-MFF-NMA-CYS*-NH2] | 73
5 | C=CC(=O)NCCC[C@@H]1NC(=O)[C@H](C)NC(=O)[C@H](C(C)(C)C)NC(=O)[C@H](Cc2ccc(O)cc2)NC(=O)[C@@H](NC(=O)[C@H](CCC)NC(C)=O)CSCc2cccc(c2)CSC[C@@H](C(N)=O)NC(=O)CN(C)C(=O)[C@H](Cc2ccc(F)cc2)N(C)C(=O)[C@H](Cc2ccc(O)cc2)NC(=O)[C@H](Cc2c[nH]c3ncccc23)NC(=O)[C@H](c2ccccc2)NC(=O)[C@H](C)N(C)C1=O (relative stereo) [Compound R4122, ACE-NVA-CYS*-TYR-TBG-ALA-ORAC-NMA-PHG-7AW-TYR-MFF-SAR-CYS*-NH2] | 77.1

Continued by falling IC50, values first:

Row | IC50 [nM] | Compound
6 | 65.7 | CCC[C@H](NC(C)=O)C(=O)N[C@H]1CSCc2cccc(c2)CSC[C@@H](C(=O)NCC(=O)NCC(=O)NCC(=O)N[C@@H](CS)C(=O)N[C@@H](C)C(=O)N[C@H](C(=O)N[C@@H](CC(C)C)C(N)=O)[C@@H](C)CC)NC(=O)CN(C)C(=O)[C@H](Cc2ccc(F)cc2)N(C)C(=O)[C@H](Cc2ccc(O)cc2)NC(=O)[C@H](Cc2c[nH]c3ncccc23)NC(=O)[C@H](c2ccccc2)NC(=O)[C@H](C)N(C)C(=O)[C@H](Cc2c[nH]cn2)NC(=O)[C@H](CCCCN)NC(=O)[C@H](C(C)(C)C)NC(=O)[C@H](Cc2ccc(O)cc2)NC1=O (relative stereo) [Compound R4120, ACE-NVA-CYS*-TYR-TBG-LYS-HIS-NMA-PHG-S7AW-TYR-MFF-AR-CYS*-GLY-GLY-GLY-CYS-ALA-ILE-LEU-NH2]
7 | 64.4 | CCC[C@H](NC(C)=O)C(=O)N[C@H]1CSCc2cccc(c2)CSC[C@@H](C(=O)NCC(=O)N[C@@H](CS)C(=O)NCC(=O)N[C@H](C(=O)NCC(=O)N[C@H](C(=O)N[C@@H](CCSC)C(=O)O)[C@@H](C)CC)C(C)C)NC(=O)CN(C)C(=O)[C@H](Cc2ccc(F)cc2)N(C)C(=O)[C@H](Cc2ccc(O)cc2)NC(=O)[C@H](Cc2c[nH]c3ncccc23)NC(=O)[C@H](c2ccccc2)NC(=O)[C@H](C)N(C)C(=O)[C@H](Cc2c[nH]cn2)NC(=O)[C@H](CCCCN)NC(=O)[C@H](C(C)(C)C)NC(=O)[C@H](Cc2ccc(O)cc2)NC1=O (relative stereo) [Compound R4119, ACE-NVA-CYS*-TYR-TBG-LYS-HIS-NMA-PHG-7AW-TYR-MFF-SAR-CYS*-GLY-CYS-GLY-VAL-GLY-ILE-MET]
8 | 51.5 | CCC[C@H](NC(C)=O)C(=O)N[C@H]1CSCc2cccc(c2)CSC[C@@H](C(N)=O)NC(=O)[C@H](CO)N(C)C(=O)[C@H](Cc2ccc(F)cc2)N(C)C(=O)[C@H](Cc2ccc(O)cc2)NC(=O)[C@H](Cc2c[nH]c3ncccc23)NC(=O)[C@H](c2ccccc2)NC(=O)[C@H](C)N(C)C(=O)[C@H](Cc2c[nH]cn2)NC(=O)[C@H](CCCCN)NC(=O)[C@H](C(C)(C)C)NC(=O)[C@H](Cc2ccc(O)cc2)NC1=O (relative stereo) [Compound R4118, ACE-NVA-CYS*-TYR-TBG-LYS-HIS-NMA-PHG-7AW-TYR-MFF-NMS-CYS*-NH2]
9 | 48.3 | CCC[C@H](NC(C)=O)C(=O)N[C@H]1CSCc2cccc(c2)CSC[C@@H](C(N)=O)NC(=O)CN(C)C(=O)[C@H](Cc2ccc(F)cc2)N(C)C(=O)[C@H](Cc2ccc(O)cc2)NC(=O)[C@H](Cc2c[nH]c3ncccc23)NC(=O)[C@H](c2ccccc2)NC(=O)[C@H](C)N(C)C(=O)[C@H](Cc2c[nH]cn2)NC(=O)[C@H](CCCCN)NC(=O)[C@H](C(C)(C)C)NC(=O)[C@H](Cc2ccc(O)cc2)N(C)C1=O (relative stereo) [Compound R4117, ACE-NVA-CYS*-NMY-TBG-LYS-HIS-NMA-PHG-7AW-TYR-MFF-SAR-CYS*-NH2]
10 | 32.7 | CCC[C@H](N)C(=O)N[C@H]1CSCc2cccc(c2)CSC[C@@H](C(=O)N[C@H](CO)C(=O)N[C@@H](CCCCN)C(=O)NCC(=O)N[C@@H](CS)C(=O)N[C@H](C(=O)N[C@H](C(=O)N[C@@H](CCSC)C(=O)O)[C@@H](C)CC)C(C)C)NC(=O)CN(C)C(=O)[C@H](Cc2ccc(F)cc2)N(C)C(=O)[C@H](Cc2ccc(O)cc2)NC(=O)[C@H](Cc2c[nH]c3ncccc23)NC(=O)[C@H](c2ccccc2)NC(=O)[C@H](C)N(C)C(=O)[C@H](Cc2c[nH]cn2)NC(=O)[C@H](CCCCN)NC(=O)[C@H](C(C)(C)C)NC(=O)[C@H](Cc2ccc(O)cc2)NC1=O (relative stereo) [Compound R4114, NVA-CYS*-TYR-TBG-LYS-HIS-NMA-PHG-7AW-TYR-MFF-SAR-CYS*-DSER-LYS-GLY-CYS-VAL-ILE-MET]
11 | 32.7 | CCC[C@H](N)C(=O)N[C@H]1CSCc2cccc(c2)CSC[C@@H](C(=O)N[C@H](CO)C(=O)N[C@@H](CCCCN)C(=O)NCC(=O)N[C@@H](CSSC(C)(C)C)C(=O)N[C@H](C(=O)N[C@H](C(=O)N[C@@H](CCSC)C(=O)O)[C@@H](C)CC)C(C)C)NC(=O)CN(C)C(=O)[C@H](Cc2ccc(F)cc2)N(C)C(=O)[C@H](Cc2ccc(O)cc2)NC(=O)[C@H](Cc2c[nH]c3ncccc23)NC(=O)[C@H](c2ccccc2)NC(=O)[C@H](C)N(C)C(=O)[C@H](Cc2c[nH]cn2)NC(=O)[C@H](CCCCN)NC(=O)[C@H](C(C)(C)C)NC(=O)[C@H](Cc2ccc(O)cc2)NC1=O (relative stereo) [Compound R4113, NVA-CYS*-TYR-TBG-LYS-HIS-NMA-PHG-7AW-TYR-MFF-SAR-CYS*-DSER-LYS-GLY-TDSPA-VAL-ILE-MET]
12 | 21.4 | CC(=O)N[C@H]1CSCc2cccc(c2)CSC[C@@H](C(N)=O)NC(=O)CN(C)C(=O)[C@H](Cc2ccc(F)cc2)N(C)C(=O)[C@H](Cc2ccc(O)cc2)NC(=O)[C@H](Cc2c[nH]c3ncccc23)NC(=O)[C@H](c2ccccc2)NC(=O)[C@H](C)N(C)C(=O)[C@H](Cc2c[nH]cn2)NC(=O)[C@H](CCCCN)NC(=O)[C@H](C(C)(C)C)NC(=O)[C@H](Cc2ccc(O)cc2)NC1=O (relative stereo) [Compound R4112, ACE-CYS*-TYR-TBG-LYS-HIS-NMA-PHG-7AW-TYR-MFF-SAR-CYS*-NH2]
